# Source: a melting point compilation (Tetko et al.; mined from patent text by program, amines drawn as free bases though some values may be those of a salt)
row,melting point [°C],SMILES
1,206 to 209,N=C(N)c1ccc2[nH]cc(CCN3C(=O)c4ccccc4C3=O)c2c1
2,120 to 121,O=c1oc2ccccc2c(O)c1SCCOc1ccccc1
3,140,O=C1c2ccccc2C(=O)c2c1cccc2N1CCN(CCO)CC1
4,105 to 107,COc1cccc(CCCC(=O)O)c1C
5,270 to 271,COc1ccc2c(c1)C(=NO)c1c-2cnc2ccccc12
6,110 to 112,CCOC(=O)CSC1=CC(=NS(=O)(=O)c2cccs2)c2ccccc2C1=O
7,118 to 119,CN(c1cccc(C(F)(F)F)c1)c1cc(Oc2cccc(C(F)(F)F)c2)ncn1
8,195 to 198,CC(COc1ccc(-n2cncn2)cc1)(NS(=O)(=O)Cc1ccccc1)C(N)=O (stereo unspecified)
9,242 to 244,CCn1c(=O)c2c(nc(/C=C/c3cccc(O)c3O)n2C)n(CC)c1=O
10,187 to 191,CC12CCC3c4cc(OCC(F)(F)F)c(O)cc4C(=NO)CC3C1CCC2O (stereo unspecified)
11,255 to 257,COc1ccc(NC(=O)c2ccc(F)c(F)c2)cc1NS(=O)(=O)c1ccc(C#N)cc1
12,116 to 118,COc1ccc2c(c1)c(CC(=O)OCc1cccnc1)c(C)n2C(=O)c1ccc(Cl)cc1
13,171 to 173,CCOc1ccc(C(=O)N2CCc3nnc(NN)cc3C2)cc1
14,175 to 177,COc1nc(Cl)cnc1N(C(=O)OCC(C)C)S(=O)(=O)c1ccccc1-c1ccc(O)cc1
15,72 to 72.5,CCCCSc1nsnc1O
16,106 to 108,CC1(c2ccccc2)OC(C=Cc2cccnc2)=CC1=O (stereo unspecified)
17,61 to 63,O=C(NCCCBr)c1cnccc1C(F)(F)F
18,181 to 186,N#Cc1[nH]c([N+](=O)[O-])c(Br)c1Br
19,89 to 91,CCOC(=O)/C=C(C)/C=C/C=C(C)/C=C/c1c(C)oc(C)c1C
20,164 to 165,CC(C)(C)c1ccc(C(=O)Nc2cc(Cl)c(N)cc2O)cc1
21,152 to 154,CCCCCCCCCC(=O)Nc1cc(N)cc(NC(=O)CCCCCCCCC)c1
22,243,O=C(O)c1cc(NCc2ccccc2)c(Nc2ccccc2)c(S(=O)(=O)Nc2ccccc2)c1

row,melting point [°C],SMILES
1,148 to 149,Cn1cnc(S(=O)(=O)NCCCN2CCOCC2)c1
2,120 to 121,Cn1nc(CNC(=O)Nc2ccccc2)nc1NCCCOc1cccc(CN2CCCCC2)c1
3,84 to 89,Cc1nnsc1C(=O)Nc1ccc(-n2nc(C(F)(F)F)cc2C2CC2)cc1
4,129 to 131,CCCN(Cc1ccc(-c2ccccc2-c2nnnn2C(c2ccccc2)(c2ccccc2)c2ccccc2)cc1)c1ncccc1C(=O)OCC
5,> 260,O=C(NC12CC3CC(CC(C3)C1)C2)n1cc(F)c(=O)[nH]c1=O
6,119 to 121,Cn1c(C(O)CO)cnc1[N+](=O)[O-] (stereo unspecified)
7,230 to 232,CN(c1cccc2cc(C3=NCC(C(N)=O)S3)[nH]c12)S(=O)(=O)c1cccs1 (stereo unspecified)
8,131 to 132,COc1ccc(OC2COc3ccc(OCc4ccc5ccccc5n4)cc3C2O)cc1 (stereo unspecified)
9,102 to 104,CCCc1cc(C)c2oc(Cc3ccc(OC)cc3)c(C)c2c1O
10,105 to 109,Cc1c(C)c(N2CCN(Cc3ccccc3)CC2)c(C)c2c1OC(C)(C)C2(O)c1ccc(F)nc1 (stereo unspecified)
11,94 to 98,Cc1cc(C)n(C)c1C(=O)c1ccc(Cl)cc1
12,47 to 48,COc1c2c(c(OC)c(OC)c1OC)CC(CCCCCCCCOC(C)=O)C2
13,126 to 128,COC(=O)[C@@H]1CSCN1C(=O)/C=C\Sc1ccccc1
14,99 to 103,CCC(=O)OCC(=O)C1(OC(C)=O)CCC2C3CC(C)C4=CC(=O)CCC4(C)C3C(O)CC21C (stereo unspecified)
15,154 to 159,CC(C)(C)OC(=O)N1CCC(c2nc3cc(-c4ccc(-n5cnnn5)c(F)c4)ccc3o2)CC1
16,202 to 204,Cc1cc(C(=O)Nc2nc(-c3ccoc3)c(C(=O)C3CCOCC3)s2)ccn1
17,135 to 136,COC(=O)c1nccnc1Nc1ccc(Cl)cc1
18,> 200,CN(C)CC(=O)NCC#Cc1cnc2c(c1)N(Cc1c(Cl)cccc1Cl)CCN2
19,101 to 103,O=C(NOCC(O)CN1CCCCC1)Nc1ccccc1 (stereo unspecified)
20,166 to 168,CC(C)(C)c1cc2c(c(C(C)(C)C)c1)OCC(/C=C/C=C/C=C/C(=O)O)=C2
21,64 to 65,CC(C)=CCc1c(C)cc(O)cc1C
22,226 to 228,CC(C)c1cc2c(c3c1C(=O)NS3(=O)=O)OCO2

row,melting point [°C],SMILES
1,115,CCOC(=O)[C@H]1CC[C@@H](c2ccccc2)N1C(=O)CNC(=O)Nc1cccc(C)c1 (racemic)
2,126 to 127,COc1cc2c(cc1OCc1ccccc1)C(O)CN(Cc1cc(OC)c(OC)c(OC)c1)C2 (stereo unspecified)
3,142 to 143,CNc1nc(Br)cc(S(=O)(=O)c2ccccc2)n1
4,97 to 98,CCOC(=O)Cc1ccc2oc3ccccc3c(=O)c2c1
5,168 to 169,O=C(O)CCc1cc2ccc(C(F)(F)F)cc2n1S(=O)(=O)c1ccccc1
6,175,COC(=O)C1=C(C)NC(C)=C(C(=O)O)[C@H]1c1cccc2nonc12
7,124 to 125,CC(C)CC1(CCCCCl)C(=O)Nc2ccccc21 (stereo unspecified)
8,318 to 324,Nc1c(Br)cc2c3c(cccc13)C(=O)N(O)C2=O
9,198 to 201,C[C@]1(COc2ccc(N3CCN(Cc4ccc(N5CCC(Oc6ccc(OC(F)(F)F)cc6)CC5)cc4)CC3)cc2)Cn2cc([N+](=O)[O-])nc2O1
10,121 to 123,Cc1ccc(C(=O)c2ccc(Cc3c(Cl)cc([N+](=O)[O-])cc3Cl)cc2)cn1
11,124 to 125,COc1cc(Nc2nccc(-c3ccc(NCCCNC(C)C)nc3)n2)cc(OC)c1OC
12,153 to 155,Cc1cc(CNC(=O)c2ccnc(N3CCN(Cc4ccc(F)cc4)C3=O)c2)no1
13,168 to 170,CN(CCOc1ccc(CC(F)C(N)=O)cc1)c1nc2ccccc2o1 (stereo unspecified)
14,273,Cc1nc(C)n(-c2cc(C)c3[nH]c(=O)ccc3c2)c1Br
15,159 to 162,COC(=O)C=Cc1cc([N+](=O)[O-])ccc1Cl
16,242 to 243,Cc1nnc(-c2ccc3occ(-c4ccc5c(c4)C(C)(C)CS5(=O)=O)c3c2)o1
17,144 to 146,C=C(C)C(=O)Oc1c(Cc2cc(C)cc(C(C)(C)C)c2O)cc(C)cc1C(C)(C)C
18,165 to 167,CC(=O)CCC(=O)c1ccc(Cl)cc1
19,> 350,O=c1c2c[nH]c3ccc(F)cc3c-2nn1-c1ncccn1
20,73,CC(O)C(C)Sc1cc(C(C)(C)C)c(O)c(C(C)(C)C)c1 (stereo unspecified)
21,156 to 158,CSc1nn(-c2c(Cl)cc(C(F)(F)F)cc2Cl)c2ncnc(-c3ccccc3Cl)c12

row,SMILES,melting point [°C]
1,CC(=O)Oc1cc(C)cc2c1C1=C(CCC(C)C1)C(C)(C)O2 (stereo unspecified),115 to 119
2,CCC(CC)(CCC#N)C(NC(=O)c1ccc(Cl)cc1)NC(=N[N+](=O)[O-])Nc1cccnc1 (stereo unspecified),100 to 110
3,CN(C)CCc1ccc(N)c2[nH]ncc12,125
4,CC1CCc2c(N3CCNCC3)ccc3c2N1C=C(C(=O)O)C3 (stereo unspecified),264 to 265
5,CCOc1ccc(OC(CCC(=O)O)C2(O)CN3CCC2CC3)cc1 (stereo unspecified),75 to 77
6,CCn1cc(C(=O)Nc2nccs2)c2ccc(Cl)cc21,234 to 236
